Test results taken from article PMC2860736 (Pharmacological research : the official journal of the …, 2010).
Where two headings read alike, the source gives them in different places. Blank lines part the entries; values can stand above or below the compound they belong to.

Key:
human COX-2 = target: T1, human COX-2 (Homo sapiens, UniProt P35354); experiment: COX functional assay; format: biochemical; settings: for COX-2 selectivity (IC50 COX-1 / IC50 COX-2): ratio of IC50 values; for inhibition at 10 µM: read-out: Inhibition of COX-2 (%) Mean ± std. dev. (N=3); for Inhibition of COX-2 (%) Mean ± std. dev. (N=3): compound 10 μM; for selectivity for COX-2 (COX-1 IC50 / COX-2 IC50): human COX-2 over COX-1
T1 sequence (P35354 18-604): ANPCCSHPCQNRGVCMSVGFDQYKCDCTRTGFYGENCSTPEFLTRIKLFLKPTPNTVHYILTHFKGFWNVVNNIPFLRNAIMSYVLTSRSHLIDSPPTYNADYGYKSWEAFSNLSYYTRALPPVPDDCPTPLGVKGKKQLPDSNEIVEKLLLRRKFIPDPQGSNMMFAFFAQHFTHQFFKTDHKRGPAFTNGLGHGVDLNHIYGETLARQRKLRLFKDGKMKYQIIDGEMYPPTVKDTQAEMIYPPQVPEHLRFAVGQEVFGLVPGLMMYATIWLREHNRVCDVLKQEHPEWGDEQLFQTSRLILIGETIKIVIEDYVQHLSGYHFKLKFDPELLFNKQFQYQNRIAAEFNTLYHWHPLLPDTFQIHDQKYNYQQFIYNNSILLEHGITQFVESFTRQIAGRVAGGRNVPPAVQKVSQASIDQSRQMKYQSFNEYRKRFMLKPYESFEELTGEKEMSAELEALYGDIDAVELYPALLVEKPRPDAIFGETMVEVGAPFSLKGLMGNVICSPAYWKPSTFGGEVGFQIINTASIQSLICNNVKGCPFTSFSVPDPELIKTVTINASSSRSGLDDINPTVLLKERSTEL

ovine COX-1 = target: T2, ovine COX-1 (Ovis aries, UniProt P05979); experiment: COX functional assay; format: biochemical; settings: for inhibition at 10 µM: read-out: Inhibition of COX-1 (%) Mean ± std. dev. (N=3); for Inhibition of COX-1 (%) Mean ± std. dev. (N=3): compound 10 μM
T2 sequence (P05979 25-600): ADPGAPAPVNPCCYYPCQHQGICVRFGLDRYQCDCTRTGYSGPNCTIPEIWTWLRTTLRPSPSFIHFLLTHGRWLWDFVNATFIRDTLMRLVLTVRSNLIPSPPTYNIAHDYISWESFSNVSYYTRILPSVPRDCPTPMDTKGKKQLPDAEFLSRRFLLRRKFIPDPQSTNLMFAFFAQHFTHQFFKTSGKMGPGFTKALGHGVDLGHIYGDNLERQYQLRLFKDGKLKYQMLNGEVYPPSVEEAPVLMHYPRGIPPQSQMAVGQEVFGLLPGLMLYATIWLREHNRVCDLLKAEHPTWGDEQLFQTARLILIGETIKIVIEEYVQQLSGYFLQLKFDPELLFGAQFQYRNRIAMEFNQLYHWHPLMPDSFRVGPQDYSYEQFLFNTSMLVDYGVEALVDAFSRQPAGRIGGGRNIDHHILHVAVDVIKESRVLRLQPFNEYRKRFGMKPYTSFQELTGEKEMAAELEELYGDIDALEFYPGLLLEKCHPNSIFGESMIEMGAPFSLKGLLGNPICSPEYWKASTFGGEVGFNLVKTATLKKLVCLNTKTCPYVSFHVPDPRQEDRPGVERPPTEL

ovine COX-2 = experiment: Pulsed ultrafiltration LC-MS screening for COX-2 ligands; format: binding; settings: for binding to COX-2 (result in words): pulsed ultrafiltration LC-MS; for peak enhancement compared to the control chromatograms: standards screened as mixtures, 0.7 μg/mL each, control denatured COX-2
COX-2 = settings: read-out: IC50 COX-2; cited from earlier work
COX-1 [1] = settings: read-out: IC50 COX-1; cited from earlier work
COX-1 [2] = settings: read-out: IC50 COX-1; assay using human platelets; cited from earlier work
[3] = IC50 COX-2, N=3, mean ± std. dev.
[4] = IC50 COX-1, N=3, mean ± std. dev.
[5] = read-out: IC50 COX-2, N=3, mean ± std. dev.
[6] = read-out: IC50 COX-1, N=3, mean ± std. dev.

inhibition of COX-2 in the functional assay (result in words) (human COX-2): did not inhibit | inhibition of COX-1 in the functional assay (result in words) (ovine COX-1): did not inhibit
SMILES: COc1ccc(-c2cc(=O)c3c(O)cc(O)cc3o2)cc1 [Linarigenin]

SMILES: CC[C@H](CC[C@@H](C)[C@H]1CC[C@H]2[C@@H]3CC=C4C[C@@H](O)CC[C@]4(C)[C@H]3CC[C@]12C)C(C)C [β-Sitosterol]
inhibition of COX-2 in the functional assay (result in words) (human COX-2): did not inhibit | inhibition of COX-1 in the functional assay (result in words) (ovine COX-1): did not inhibit

SMILES: O=C1C[C@@H](c2ccc(O)cc2)Oc2cc(O)ccc21 [Liquiritigenin]
binding to COX-2 (result in words) (ovine COX-2): did not show sufficient binding to COX-2

SMILES: C=C(C)[C@@H]1CC[C@]2(C(=O)O)CC[C@]3(C)[C@H](CC[C@@H]4[C@@]5(C)CC[C@H](O)C(C)(C)[C@@H]5CC[C@]43C)[C@@H]12 [Betulinic acid]
inhibition of COX-2 in the functional assay (result in words) (human COX-2): almost no inhibition of COX-2 | IC50 (human COX-2; [3]): > 100 µM | COX-2 selectivity (IC50 COX-1 / IC50 COX-2) (human COX-2): COX-1 specific | inhibition at 10 µM (human COX-2): 33 ± 5% | IC50 (ovine COX-1; [4]): 20 ± 3 µM | inhibition at 10 µM (ovine COX-1): 32 ± 5%

Inhibition of COX-2 (%) Mean ± std. dev. (N=3) (human COX-2): 52 ± 20% | selectivity for COX-2 (COX-1 IC50 / COX-2 IC50) (human COX-2): ≥ 5 fold | COX-2 selectivity (IC50 COX-1 / IC50 COX-2) (human COX-2): 5.00 | IC50 (human COX-2; [5]): 5 ± 5 µM | Inhibition of COX-1 (%) Mean ± std. dev. (N=3) (ovine COX-1): 0 ± 5% | IC50 (ovine COX-1; [6]): 25 ± 10 µM | binding to COX-2 (result in words) (ovine COX-2): determined to be COX-2 ligands
SMILES: CCC/C=C1\OC(=O)C2=C1CC[C@H]1[C@H]3C=C4C(=O)O/C(=C\CCC)[C@@]4(CC3)[C@@H]21 [Senkyunolide O]

SMILES: C[C@H]1[C@H](C)CC[C@]2(C)CC[C@]3(C)C(=CC[C@@H]4[C@@]5(C)CC[C@@H](O)[C@](C)(C(=O)O)[C@@H]5CC[C@]43C)[C@H]12 [β-Boswellic acid]
IC50 (human COX-2; [3]): > 100 µM | inhibition at 10 µM (human COX-2): 17 ± 15% | inhibition at 10 µM (ovine COX-1): 42 ± 15%

inhibition of COX-2 in the functional assay (result in words) (human COX-2): did not inhibit | inhibition of COX-1 in the functional assay (result in words) (ovine COX-1): did not inhibit
SMILES: CC(C)=CCC/C(C)=C/Cc1cc2ccc(=O)oc2cc1O [Ostruthin]

SMILES: C[C@H]1COC2=C1C(=O)C(=O)c1c2ccc2c1CCCC2(C)C [Cryptotanshinone]
IC50 (human COX-2; [3]): 22 ± 10 µM | selectivity for COX-2 (COX-1 IC50 / COX-2 IC50) (human COX-2): ≥ 5 fold | COX-2 selectivity (IC50 COX-1 / IC50 COX-2) (human COX-2): COX-2 specific | inhibition at 10 µM (human COX-2): 31 ± 20% | IC50 (ovine COX-1; [4]): > 100 µM | inhibition at 10 µM (ovine COX-1): 0% | binding to COX-2 (result in words) (ovine COX-2): determined to be COX-2 ligands

Inhibition of COX-2 (%) Mean ± std. dev. (N=3) (human COX-2): 19 ± 5% | IC50 (human COX-2; [5]): > 100 µM | IC50 (human COX-2; read-out: IC50 COX-2, N=3, mean ± std. dev., listed as acetyl-α-boswellic acid): ≥ 73 µM | Inhibition of COX-1 (%) Mean ± std. dev. (N=3) (ovine COX-1): 74 ± 3%
SMILES: CC(=O)O[C@@H]1CC[C@@]2(C)[C@@H](CC[C@]3(C)[C@@H]2CC=C2[C@@H]4CC(C)(C)CC[C@]4(C)CC[C@]23C)[C@@]1(C)C(=O)O [Acetyl-α-boswellic acid]

inhibition of COX-2 in the functional assay (result in words) (human COX-2): did not inhibit | inhibition of COX-1 in the functional assay (result in words) (ovine COX-1): did not inhibit
SMILES: CC(C)=CCOc1c2ccoc2cc2oc(=O)ccc12 [Isoimperatorin]

Inhibition of COX-2 (%) Mean ± std. dev. (N=3) (human COX-2): 25 ± 10% | COX-2 selectivity (IC50 COX-1 / IC50 COX-2) (human COX-2): 0.58 | COX-2 selectivity (IC50 COX-1 / IC50 COX-2) (human COX-2; listed as phenethyl-trans-ferulate): inhibited COX-1 and COX-2 equally | IC50 (human COX-2; [5]): 31 ± 15 µM | Inhibition of COX-1 (%) Mean ± std. dev. (N=3) (ovine COX-1): 44 ± 3% | IC50 (ovine COX-1; [6]): 18 ± 5 µM
SMILES: COc1cc(/C=C/C(=O)OCCc2ccccc2)ccc1O [Phenethyl trans-ferulate]
peak enhancement compared to the control chromatograms (ovine COX-2): ≥ 40%

inhibition of COX-2 in the functional assay (result in words) (human COX-2): did not inhibit | inhibition of COX-1 in the functional assay (result in words) (ovine COX-1): did not inhibit
SMILES: CC(C)=CC(O)C/C(C)=C/COc1c2ccoc2cc2oc(=O)ccc12 (centres unmarked) [Notopterol]

inhibition of COX-2 in the functional assay (result in words) (human COX-2): did not inhibit | inhibition of COX-1 in the functional assay (result in words) (ovine COX-1): did not inhibit
SMILES: CC1(C)[C@@H](O)CC[C@]2(C)[C@H]3C(=O)C=C4[C@@H]5C[C@@](C)(C(=O)O)CC[C@]5(C)CC[C@@]4(C)[C@]3(C)CC[C@@H]12 [Glycyrrhetic acid]

SMILES: Oc1ccc(/C=C/c2cc(O)cc(O)c2)cc1 [Resveratrol, reference compound]
IC50 (ovine COX-1; [4]): 0.86 ± 0.1 µM | inhibition at 10 µM (ovine COX-1): 86 ± 7% | IC50 (COX-2): 0.99 ± 0.4 µM | IC50 (COX-1 [1]): 0.83 ± 0.44 µM

inhibition of COX-2 in the functional assay (result in words) (human COX-2): did not inhibit | inhibition of COX-1 in the functional assay (result in words) (ovine COX-1): did not inhibit
SMILES: CC1(C)CC[C@]2(C)CC[C@]3(C)C(=CC[C@@H]4[C@@]5(C)CC[C@@H](O)[C@](C)(C(=O)O)[C@@H]5CC[C@]43C)[C@@H]2C1 [α-Boswellic acid]

Inhibition of COX-2 (%) Mean ± std. dev. (N=3) (human COX-2): 23 ± 15% | IC50 (human COX-2; [5]): 85 ± 20 µM | IC50 (human COX-2; read-out: IC50 COX-2, N=3, mean ± std. dev., listed as acetyl-11-keto-β-boswellic acid): ≥ 73 µM | Inhibition of COX-1 (%) Mean ± std. dev. (N=3) (ovine COX-1): 39 ± 5%
SMILES: CC(=O)O[C@@H]1CC[C@@]2(C)[C@@H](CC[C@]3(C)[C@@H]2C(=O)C=C2[C@@H]4[C@@H](C)[C@H](C)CC[C@]4(C)CC[C@]23C)[C@@]1(C)C(=O)O [Acetyl-11-keto-β-boswellic acid]
IC50 (COX-1 [2]): 6 µM

Inhibition of COX-2 (%) Mean ± std. dev. (N=3) (human COX-2): 25 ± 6% | IC50 (human COX-2; [5]): 73 ± 20 µM | IC50 (human COX-2; read-out: IC50 COX-2, N=3, mean ± std. dev., listed as acetyl-β-boswellic acid): ≥ 73 µM | Inhibition of COX-1 (%) Mean ± std. dev. (N=3) (ovine COX-1): 31 ± 10%
SMILES: CC(=O)O[C@@H]1CC[C@@]2(C)[C@@H](CC[C@]3(C)[C@@H]2CC=C2[C@@H]4[C@@H](C)[C@H](C)CC[C@]4(C)CC[C@]23C)[C@@]1(C)C(=O)O [Acetyl-β-boswellic acid]

inhibition at 10 µM (human COX-2): 23 ± 3%
SMILES: O=C(/C=C/c1ccc(O)cc1)c1ccc(O)cc1O [Isoliquiritigenin]
peak enhancement compared to the control chromatograms (ovine COX-2): ≥ 40%

SMILES: C=C(C)[C@@H]1CC[C@]2(C)[C@H](CC=C3[C@@H]4[C@@H](C)[C@H](C)CC[C@]4(C)CC[C@]32C)[C@@]1(C)CCC(=O)O [Roburic acid]
Inhibition of COX-2 (%) Mean ± std. dev. (N=3) (human COX-2): 45 ± 5% | IC50 (human COX-2; [5]): 9 ± 3 µM | Inhibition of COX-1 (%) Mean ± std. dev. (N=3) (ovine COX-1): 33 ± 8% | IC50 (ovine COX-1; [6]): 5 ± 2 µM
